Like-named read-outs stand apart in the source and are kept apart here.

The source of these data is PMC6527222 (PLoS ONE, 2019).

For data set [1] the following is noted: carvedilol cohort versus non-carvedilol cohort; cited from earlier work.
For data set [2], the system named is JB6 P+ cells. As to the kind of experiment: SRB cytotoxicity assay. Format: cell-based, mouse. Conditions: 72 hr; NT = no toxicity at any concentration tested. As for the experimental part: 96-well plates were seeded with 3x10^3 JB6 P+ cells per well and allowed to attach overnight. […] Cell viability was determined using Sulforhodamine B (SRB) assay from Sigma-Aldrich according to the manufacturer’s protocol. Cellular protein content was measured using a Bio-Tek μQuant plate reader with KCJunior software.
Concentration-response curves were normalized so that the EGF positive control on each 96-well plate was set to 100% and the control wells on each plate were set to 0%. Toxicity assays (SRB and MTS) were normalized so that the control on each plate represented 100% viability. Normalization allowed for comparison of data over a range of JB6 P+ cell cultures, passages, and experimental time for the shRNA studies, as well as control for variation in the EGF response, and importantly allowed for a direct comparison to all concentration-response experiments including the toxicity assays. […] All group sizes were determined via previous studies to provide statistically meaningful data. In the soft agar assays, key results were repeated with different JB6 P+ cells to confirm the results. Similarly, the shRNA studies were conducted with three independent concentration-response curves with different JB6 P+ cell stocks. […] For two sample comparisons a t-test was utilized, and when comparing multiple samples a One-, Two-, or Three-Factor ANOVA followed by Tukey-Kramer post hoc test was utilized depending on the data. For all tests, statistical difference was donated when p < 0.05.
The IΔ2*PSD is expressed in x-axis units (log [M]) as is an IC50 and it represents the first concentration where it is expected to observe a statistical decrease in the measured signal.
Using the formula provided by GraphPad Prism or a straight line for the point-to-point graphs, the X-axis value for point Y was determined. The error is ascribed to this measurement via adding and subtracting the pooled standard deviation (PSD) to/from point Y generating point Y ± PSD. The two new points were then transformed to the X-axis units as was done for point Y creating an asymmetric error in sigmoidal plots. When the error was asymmetric, the larger error value was chosen to err on the conservative side. See S1 Fig for a pictoral explination of the method. The data is presented as IΔ2*PSD ± error.

Data set [3] relates to JB6 P+ cells. Put plainly: MTS cell proliferation assay. It counts as cell-based, mouse. Conditions: two weeks. As for the experimental part:
Cell viability was determined by the addition of MTS reagent according to the manufacturer’s protocol (Promega, Madison, WI) and absorbance was measured using a Bio-Tek μQuant plate reader with KCJunior software. […] Normalization allowed for comparison of data over a range of JB6 P+ cell cultures, passages, and experimental time for the shRNA studies, as well as control for variation in the EGF response, and importantly allowed for a direct comparison to all concentration-response experiments including the toxicity assays. Data are expressed as mean ± SD and were analyzed using GraphPad Prism version 7.02 (La Jolla, CA). All group sizes were determined via previous studies to provide statistically meaningful data. In the soft agar assays, key results were repeated with different JB6 P+ cells to confirm the results. Similarly, the shRNA studies were conducted with three independent concentration-response curves with different JB6 P+ cell stocks. Statistical analysis of raw data was conducted with NCSS 2007 (Kaysville, UT). For two sample comparisons a t-test was utilized, and when comparing multiple samples a One-, Two-, or Three-Factor ANOVA followed by Tukey-Kramer post hoc test was utilized depending on the data. For all tests, statistical difference was donated when p < 0.05.
For orientation: Tetrazolium assays rely on reduction of a dye to a coloured formazan, in cell work by metabolically active cells.

Data set [4] relates to JB6 P+ cells. Conditions: previous data, cited from earlier work.
Data set [5] deals with hairless mice (UV-induced skin thickening). Put plainly: Eight dose UV exposure, bi-folded epidermal thickness in hairless wild type and β2-AR knockout mice. Format: in vivo, mouse. The following applies: 5 μM in 200 μL acetone topically every other day, 200 mJ/cm^2 UV, eight irradiations. The method, then: The Western University of Health Sciences’ Institutional Animal Care and Use Committee (WesternU IACUC) approved all animal studies prior to initiating any experiments. The animal studies were carried out under WesternU IACUC recommendations and guidelines, which follow NIH guidelines. Mice had access to water and food ad libitum and housed on a 12-hour light/dark cycle with 35% humidity. Homozygous β1-AR and β2-AR null mice (Adrb1^tm1Bkk Adrb2^tm1Bkk/J Stock Number 003810) were purchased from Jackson Laboratory (Bar Harbor, ME); the double knockout mice were characterized previously. The double knockout mice were bred with C57BL/6J from Jackson Lab to generate a heterozygous F1 generation. The F1 generation was bred together to generate the F2 generation of which 1/16th of the offspring were a β2-AR knockout mouse. SKH-1 mice purchased from Charles River (Wilmington, MA) were bred with the β2-AR knockout mice generating a second heterozygous F1 generation. The F1 generation was bred together to generate the F2 generation of which 1/16th of the offspring were a hairless β2-AR knockout mouse. The F2 generation was backcrossed with a new batch of SKH-1 from Charles River to generate mice more efficiently. The mice used in this study are 75% SKH-1 and 25% mixed background. Following experimentation, and to cull the unused mice in a colony, mice were euthanized via exposure to 32% Isoflurane followed by cervical dislocation to ensure euthanization prior to disposal.
The first two weeks were pretreatment and the second two weeks were during the UV irradiation procedure, but drugs were applied the day after UV exposure to avoid sunscreen effects. All groups involved with UV were irradiated with 200 mJ/cm^2 dose of UV every other day for a total of eight irradiations. Bi-folded epidermal thickness was measured using a digital caliper before drug treatment on non-radiation days. Three skin thickness measurements were taken along the left, middle, and right dorsal epidermal layer, and the mean thickness was recorded for each mouse.

Data set [6] deals with β2-AR. Also noted: method as in as printed in each cell (43-46, 48-54, 56-58). The following applies: as described in the references; ref (43-46, 48-54, 56-58); cited from earlier work.
Data set [7] relates to JB6 P+ cells. As to the kind of experiment: Soft agar assay with competitive adrenergic receptor antagonists. It counts as cell-based. The following applies: Mus musculus, alone. As for the experimental part: Ten ng/mL EGF was used to promote the anchorage-independent growth of JB6 cells. […] Plates were incubated at 37°C, 5% CO2 for 14 days. Colonies with greater than ten cells were counted manually under a microscope. Antagonists identified in our assays as ineffective at blocking EGF-mediated transformation of JB6 P+ cells yet displaying no or little toxicity were used as competitive antagonists towards carvedilol-mediated prevention of EGF-induced transformation of JB6 P+ cells.

Data set [8] addresses α1D-AR. Conditions: read-out: Kd towards the α1D-AR; cited from earlier work.

On to `COc1ccccc1OCCNCC(O)COc1cccc2[nH]c3ccccc3c12` (stereo not shown) [Carvedilol], for which the “reduction in the incidence of all types of cancer” value in data set [1] is reported as 26%. Further, the “SRB Assay Log IΔ2*PSD” value in data set [2] was -4.89 ± 0.09 log [M]. Moreover, the results for the “toxicity (cell viability), words” value in data set [3] (100 μM) and in data set [3] (concentrations lower than 10 μM) were “maximum toxicity” and “did not affect cell viability”, respectively. Moreover, the “effect on EGF-mediated transformation of JB6 P+ cells, words” value in data set [4] is “completely prevents”. The IC50 in data set [4] (read-out: IC50, inhibition of EGF-mediated transformation) is 782 nM; in data set [7] (CGP 12177 experiment (Fig 5B)), 331 nM; in data set [7] (HEAT HCl experiment (Fig 5C)) it was 275 nM; in data set [7] (nadolol experiment (Fig 5A)), 282 nM. In addition, the “effect on UV-induced skin thickening, words” value in data set [5] (wild type mice) was “statistical difference from the UV control on day 8 onward”; in data set [5] (β2-AR knockout mice) it was “greater effects in the knockout mice”. The “Pharmacological property at β2-AR” value in data set [6] was “Biased agonist/ partial ERK agonist [43, 44]”. Further, in data set [8], the Kd was 1.2 nM.

What is called IC50 is the concentration at which inhibition is half-maximal. Broadly, the Kd is the free concentration of one partner at which half of the binding sites on the other are occupied at equilibrium, for simple one-to-one binding.
